Measurements: patent publication US9187472B2 (AbbVie Inc., priority 2012, dated 2015)

Tested on: PC3 cells
Assay: NAMPT Cell Proliferation Assay
Assay type: cell-based
Conditions: Homo sapiens, PC-3, 120 h, 5 days incubation, cell viability by Cell Titer Glo
In short: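 Cell Titer Glo viability after 5-day exposure (37° C, 5% CO2); PC3, 500 cells/well, RPMI + 10% heat-inactivated FBS, overnight attachment before dosing. Dose range 10 μM to 1×10^−5 μM, 10-fold steps. IC50 = sigmoidal fit of % inhibition.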

| SMILES | IC50 |
| --- | --- |
| O=C(NCc1ccn2ccnc2c1)c1ccc(C2CCN(C(=O)N3CCCCC3)CC2)cc1 [Example 1068, N-(imidazo[1,2-a]pyridin-7-ylmethyl)-4-[1-(piperidin-1-ylcarbonyl)piperidin-4-yl]benzamide] | 5.77 nM |
| O=C(NCc1ccn2ccnc2c1)Nc1ccc(C2CCN(C(=O)c3ncccc3Cl)CC2)cc1 [Example 1019, 1-(4-{1-[(3-chloropyridin-2-yl)carbonyl]piperidin-4-yl}phenyl)-3-(imidazo[1,2-a]pyridin-7-ylmethyl)urea] | 1.98 nM |
| O=C(NCc1ccn2ccnc2c1)c1ccc(C2CCN(C(=O)c3ccc(C4CC4)cn3)CC2)cc1 [Example 1094, 4-{1-[(5-cyclopropylpyridin-2-yl)carbonyl]piperidin-4-yl}-N-(imidazo[1,2-a]pyridin-7-ylmethyl)benzamide] | 68.8 nM |
| CCn1ncc(Cl)c1C(=O)N1CCC(c2ccc(NC(=O)NCc3ccn4ccnc4c3)cc2)CC1 [Example 1047, 1-(4-{1-[(4-chloro-1-ethyl-1H-pyrazol-5-yl)carbonyl]piperidin-4-yl}phenyl)-3-(imidazo[1,2-a]pyridin-7-ylmethyl)urea] | 0.205 nM |
| N#Cc1ccccc1C(=O)N1CCC(c2ccc(NC(=O)NCc3ccn4ccnc4c3)c(F)c2)CC1 [Example 1076, 1-{4-[1-(2-cyanobenzoyl)piperidin-4-yl]-2-fluorophenyl}-3-(imidazo[1,2-a]pyridin-7-ylmethyl)urea] | 5.7 nM |
| O=C(NCc1ccn2ccnc2c1)c1ccc(C2CCN(C(=O)C3=Cc4ccccc4OC3)CC2)cc1 [Example 974, 4-[1-(2H-chromen-3-ylcarbonyl)piperidin-4-yl]-N-(imidazo[1,2-a]pyridin-7-ylmethyl)benzamide] | 28.7 nM |
| O=C(NCc1ccn2ccnc2c1)Nc1ccc(C2CCN(C(=O)c3ccn(C4CCCC4)n3)CC2)cc1 [Example 1021, 1-(4-{1-[(1-cyclopentyl-1H-pyrazol-3-yl)carbonyl]piperidin-4-yl}phenyl)-3-(imidazo[1,2-a]pyridin-7-ylmethyl)urea] | 1.11 nM |
| COc1ncccc1/C=C/C(=O)N1CCC(c2ccc(NC(=O)NCc3ccn4ccnc4c3)cc2)CC1 [Example 1039, 1-(imidazo[1,2-a]pyridin-7-ylmethyl)-3-(4-{1-[(2E)-3-(2-methoxypyridin-3-yl)prop-2-enoyl]piperidin-4-yl}phenyl)urea] | 6.87 nM |
| O=C(Cc1ccc2nccn2c1)Nc1ccc(C2CCN(C(=O)c3ccc(F)cc3F)CC2)cc1 [Example 866, N-{4-[1-(2,4-difluorobenzoyl)piperidin-4-yl]phenyl}-2-(imidazo[1,2-a]pyridin-6-yl)acetamide] | 0.525 nM |
| CC[C@H](C)C(=O)N1CCC(c2ccc(C(=O)NCc3ccc4ncnn4c3)s2)CC1 [Example 844, 5-{1-[(2S)-2-methylbutanoyl]piperidin-4-yl}-N-([1,2,4]triazolo[1,5-a]pyridin-6-ylmethyl)thiophene-2-carboxamide] | 14.8 nM |
| COc1ccc(C)cc1CC(=O)N1CCC(c2ccc(C(=O)NCc3ccn4ccnc4c3)cc2)CC1 [Example 936, N-(imidazo[1,2-a]pyridin-7-ylmethyl)-4-{1-[(2-methoxy-5-methylphenyl)acetyl]piperidin-4-yl}benzamide] | 32.5 nM |
| O=C(NCc1ccn2ccnc2c1)c1ccc(NC(=O)c2ccccc2)cc1 [Example 869, 4-(benzoylamino)-N-(imidazo[1,2-a]pyridin-7-ylmethyl)benzamide] | 6870 nM |
| O=C(NCc1ccn2ccnc2c1)c1ccc(C2CCN(C(=O)C3COc4ccccc4O3)CC2)cc1 (stereo not shown) [Example 976, 4-[1-(2,3-dihydro-1,4-benzodioxin-2-ylcarbonyl)piperidin-4-yl]-N-(imidazo[1,2-a]pyridin-7-ylmethyl)benzamide] | 34.9 nM |
| CC(C)Cn1cc(-c2ccc(C(=O)NCc3cn4ccnc4cc3F)s2)cn1 [Example 1080, N-[(7-fluoroimidazo[1,2-a]pyridin-6-yl)methyl]-5-[1-(2-methylpropyl)-1H-pyrazol-4-yl]thiophene-2-carboxamide] | 3.41 nM |
| O=C(NCc1ccn2ccnc2c1)Nc1ccc(C2CCN(C(=O)c3cccc4c3CCC4=O)CC2)cc1 [Example 953, 1-(imidazo[1,2-a]pyridin-7-ylmethyl)-3-(4-{1-[(1-oxo-2,3-dihydro-1H-inden-4-yl)carbonyl]piperidin-4-yl}phenyl)urea] | 2.35 nM |
| O=C(NCc1ccn2ccnc2c1)c1ccc(C2CCN(C(=O)C(CO)c3ccccc3)CC2)cc1 (stereo not shown) [Example 922, 4-[1-(3-hydroxy-2-phenylpropanoyl)piperidin-4-yl]-N-(imidazo[1,2-a]pyridin-7-ylmethyl)benzamide] | 9.95 nM |
| CCOc1cc(C(=O)N2CCC(c3ccc(C(=O)NCc4ccn5ccnc5c4)cc3)CC2)ccn1 [Example 993, 4-{1-[(2-ethoxypyridin-4-yl)carbonyl]piperidin-4-yl}-N-(imidazo[1,2-a]pyridin-7-ylmethyl)benzamide] | 74 nM |

The next lines start with the values.

| IC50 | SMILES |
| --- | --- |
| 2.37 nM | O=C(NCc1ccn2ccnc2c1)c1ccc(C2CCN(C(=O)c3ccoc3C(F)(F)F)CC2)cc1 [Example 1120, N-(imidazo[1,2-a]pyridin-7-ylmethyl)-4-(1-{[2-(trifluoromethyl)furan-3-yl]carbonyl}piperidin-4-yl)benzamide] |
| 4.23 nM | O=C(NCc1ccn2ccnc2c1)Nc1ccc(C2CCN(C(=O)c3coc4ccccc34)CC2)cc1 [Example 1135, 1-{4-[1-(1-benzofuran-3-ylcarbonyl)piperidin-4-yl]phenyl}-3-(imidazo[1,2-a]pyridin-7-ylmethyl)urea] |
| 2.7 nM | CC1(Cn2cc(-c3ccc(C(=O)NCc4ccn5ccnc5c4)s3)cn2)CCN(CCN2CCNCC2)CC1 [Example 1163, N-(imidazo[1,2-a]pyridin-7-ylmethyl)-5-[1-({4-methyl-1-[2-(piperazin-1-yl)ethyl]piperidin-4-yl}methyl)-1H-pyrazol-4-yl]thiophene-2-carboxamide] |
| 4.18 nM | Cn1cc2ccc(C(=O)N3CCC(c4ccc(C(=O)NCc5ccn6ccnc6c5)cc4)CC3)cc2n1 [Example 1118, N-(imidazo[1,2-a]pyridin-7-ylmethyl)-4-{1-[(2-methyl-2H-indazol-6-yl)carbonyl]piperidin-4-yl}benzamide] |
| 27.5 nM | CC(C(=O)N1CCC(c2ccc(C(=O)NCc3ccn4ccnc4c3)cc2)CC1)n1ccc(C2CC2)n1 (stereo not shown) [Example 1106, 4-{1-[2-(3-cyclopropyl-1H-pyrazol-1-yl)propanoyl]piperidin-4-yl}-N-(imidazo[1,2-a]pyridin-7-ylmethyl)benzamide] |
| 6.67 nM | Cn1ncc2c(C(=O)N3CCC(c4ccc(C(=O)NCc5ccn6ccnc6c5)cc4)CC3)cccc21 [Example 1119, N-(imidazo[1,2-a]pyridin-7-ylmethyl)-4-{1-[(1-methyl-1H-indazol-4-yl)carbonyl]piperidin-4-yl}benzamide] |
| 3.85 nM | O=C(NCc1ccn2ccnc2c1)Nc1ccc(C2CCN(C(=O)c3scnc3Cl)CC2)cc1 [Example 1138, 1-(4-{1-[(4-chloro-1,3-thiazol-5-yl)carbonyl]piperidin-4-yl}phenyl)-3-(imidazo[1,2-a]pyridin-7-ylmethyl)urea] |
| 1.72 nM | O=C(NCc1ccn2ccnc2c1)Nc1ccc(C2CCN(C(=O)c3ccoc3C(F)(F)F)CC2)cc1 [Example 1153, 1-(imidazo[1,2-a]pyridin-7-ylmethyl)-3-[4-(1-{[2-(trifluoromethyl)furan-3-yl]carbonyl}piperidin-4-yl)phenyl]urea] |
